#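 Test compounds were applied to cells in 96-well plates for 48 hours at 5 doses. At the GI50, growth is halved. At the TGI there is no net growth.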
# Key:
# Assay in all cases: inhibition of tumour cell growth, NCI panel, 48 h
# [1] = test system: COLO 205 colon
# [2] = test system: HOP-92 NSCLC
# [3] = test system: KM12 colon
# [4] = test system: NCI-H226 lung
# [5] = test system: OVCAR-3 ovarian
# [6] = test system: PC-3 prostate
# [7] = test system: RXF 393 renal
# [8] = test system: SNB-75 CNS
# [9] = test system: UACC-257 melanoma
# [10] = test system: UACC-62 melanoma
SMILES,GI50 [1] [µM],TGI [1] [µM],GI50 [2] [µM],TGI [2] [µM],GI50 [3] [µM],GI50 [4] [µM],TGI [4] [µM],GI50 [5] [µM],GI50 [6] [µM],TGI [6] [µM],GI50 [7] [µM],GI50 [8] [µM],TGI [8] [µM],GI50 [9] [µM],TGI [9] [µM],GI50 [10] [µM],TGI [10] [µM],TGI [3] [µM],TGI [5] [µM],TGI [7] [µM]
CCOC(=O)[C@@H](C)C[C@H](Cc1ccccc1)NC(=O)c1csc([C@@H](C[C@H](C(C)C)N(C)C(=O)[C@@H](NC(=O)[C@H]2C[C@H](O)CCN2C)C(C)C)OC(C)=O)n1,< 0.00167,0.0143,0.00663,> 4.46,0.0023,0.0105,0.34,< 0.00167,0.00187,> 16.7,0.00955,0.00384,> 16.7,> 16.7,> 16.7,< 0.00167,> 16.7,–,–,–
CN(CSc1ccc(Cl)cc1)c1ccc(CSc2ccc(Cl)cc2)cc1,3.59,13.6,3.56,16.9,3.24,2.16,6.67,1.97,3.27,25.8,8.28,2.93,16.1,10.3,34.8,3.82,15.8,15.1,5.17,23.6
FC(F)(F)c1ccc(-c2ncc(-c3ccc(C(F)(F)F)cc3)c(NCc3cc(C(F)(F)F)cc(C(F)(F)F)c3)n2)cc1,2.34,6.09,1.7,5.05,4.3,3.76,83.8,3.39,3.09,18.3,4.73,4.17,73,5.29,44.4,3.77,> 100,63.2,16,74.9
CCOc1cc(/C=C/C(=O)C(C(=O)/C=C/c2ccc(OC(=O)CNc3nnc(C)s3)c(OCC)c2)C(=O)CNc2nnc(C)s2)ccc1OC(=O)CNc1nnc(C)s1,1.7,3.54,2.13,6.6,1.3,1.92,4.54,1.24,1.51,15.6,1.55,2.93,9.77,2.81,9.54,1.43,2.8,2.94,4.85,4.85
CCCCN(CC)CCCCCCCCCCN1CCCc2cc(OC)ccc21,1.6,3.25,2.19,6.76,2.31,2.8,8.16,3.35,3.06,12.7,2.34,3.02,11,3.34,9.2,2.03,5.31,5.14,11.3,4.93
CC(C)OCc1cc(CN2CCN(c3cccc(Cl)c3)CC2)c(O)c2ncccc12,5.94,19.2,1.43,19.4,0.574,1.39,6.56,0.451,0.525,16.9,2.87,1.19,14.4,1.56,9.58,0.333,1.43,13.2,14.8,20.2
NCCCNc1nc2ccc(Cl)cc2c2c(=O)c3cc(F)ccc3sc12,2.71,8.91,1.58,6.51,1.77,8.58,25.1,1.92,3.43,14.2,2.95,4.15,19.1,15.7,35.3,2.83,8.41,3.43,4.03,12.3
C=C(CN1CCN(c2ccccc2C(F)(F)F)CC1)c1ccc(C(=O)Nc2ccccc2N)cc1,11.5,45.9,1.85,30.9,2.04,7.79,48.1,5.92,1.91,12,1.67,2.82,20.1,4.66,> 62.6,9.16,> 93.7,11.7,38.3,4.78
Cc1cc(C(O)(c2ccc(Nc3ccccc3)cc2)c2ccc(Nc3ccc(S(=O)(=O)O)cc3)cc2)ccc1N (configuration not stated),0.782,2.8,1.03,2.54,1.49,1.63,3.42,1.11,1.31,6.18,0.989,1.29,30.9,1.35,3.43,0.499,2.12,3.28,2.49,2.28
O=C1c2cccnc2C(=O)c2c1c(C(=O)OCCc1ccccn1)c1ccccn21,1.45,3.16,0.121,5.58,0.0946,0.0277,0.472,0.0305,0.0563,6.57,0.124,< 0.0153,1.71,0.152,0.583,0.0202,0.219,> 22.4,1.45,1.4
COc1cc2c3c(n(CCCN4CCCNCC4)c(=O)c2cc1OC)-c1cc2c(cc1C3=O)OCO2,2.21,10.8,0.135,0.471,1.21,0.303,3.03,2.52,1.33,9.97,2.53,0.754,7.66,5.85,15.9,0.515,6.04,5.06,7.66,11.5
Oc1ccc(Cc2ccc(O)c(C3CC(c4ccc(Cl)cc4)=NN3)c2)cc1C1CC(c2ccc(Cl)cc2)=NN1 (configuration not stated),4.17,23.9,3.39,20.9,3.34,4.29,> 44.3,2.71,3.67,> 100,3.48,3.7,> 82.3,3.1,19.2,3.14,13.4,> 67.8,16.5,> 38.8
CCC(C)CC(C)C(=O)c1c(O)ccn(O)c1=O (configuration not stated),38.3,> 100,0.686,33.7,3.37,15.8,75.3,0.415,1.33,> 100,2.33,4.12,> 100,2.52,8.38,2.27,6.74,> 100,45.3,> 100
CCCOc1ccc(/C=N/Nc2cc(C)nc3ccc(Cl)cc23)cc1,1.82,3.4,1.51,3.11,1.8,1.69,3.35,2.13,1.53,3.13,1.55,1.94,3.54,1.79,3.32,1.76,3.24,3.35,3.7,2.94
COc1ccc(C2CC(c3ccc4ccccc4c3)=NN2c2nc(O)c(C3=c4cc(OC)ccc4=NC3=O)s2)cc1 (configuration not stated),0.0382,0.129,0.131,0.358,0.0856,0.0581,0.248,0.0569,0.0675,0.334,0.0266,0.0779,0.445,0.718,6.14,0.121,0.368,0.286,0.17,0.0831
c1ccc(-c2cn(-c3ccccc3)c(-c3ccccc3)n2)cc1,10.9,23.4,20.1,50.4,2.19,19.8,37.7,6.38,17.1,45.6,17.5,14,27.7,13.4,26.1,15.3,29.8,4.67,18.6,33.9
Cn1c(NCC(CN2CCCC2)OC(=O)c2ccccc2)cc(=O)n(C)c1=O (configuration not stated),> 100,> 100,> 100,> 100,–,> 100,> 100,> 100,> 100,> 100,> 100,> 100,> 100,> 100,> 100,> 100,> 100,–,> 100,> 100
CCN1C(=O)N(CC)C2C1NC(=S)N2/N=C/C=C/c1ccccc1OC (configuration not stated),0.0315,0.7,0.0269,27.1,0.0406,0.0458,> 100,0.0351,0.0411,> 100,0.0521,0.0389,> 100,> 100,> 100,0.0458,> 100,> 100,1.16,> 100
O=c1[nH]c(F)nc2c1ncn2C1OC(CO)C(O)C1O (configuration not stated),> 100,> 100,> 100,> 100,> 100,> 100,> 100,> 100,> 100,> 100,> 100,> 100,> 100,> 100,> 100,> 100,> 100,> 100,> 100,> 100
C/C(=N\O)c1cccc(Nc2cc(-c3ccccc3)nc3c(O)cccc23)c1,10.6,26.7,1.91,13.7,0.836,7.37,37.5,1.1,1.94,19.9,1.62,3.21,28.4,6.28,25.4,1.64,16.8,22.9,14.5,6.42
O=c1[nH]c2ccccc2n2cc3ccccc3c12,4.52,> 100,3.99,18.5,19.2,2.88,13.8,18.6,5.74,29.1,6.26,13.4,74.4,15.3,33.1,3.22,15.8,40,36.7,29.9
O=C(O)c1ccc(C(=O)O)c(C(=O)O)c1.[NH-]C1CCCCC1[NH-].[Pt+2],3.73,40.7,14.8,53.9,14.3,2.02,32.2,8.64,4.94,59.5,9.32,18,78.9,15.4,61.6,2.82,36,74.6,39.9,44.7
CCCCCCc1cc2cc(-c3csc(/C=C/c4ccccc4)n3)c(=O)oc2cc1O,> 100,> 100,4.32,17.7,4.42,15.2,33.4,3.52,5.39,34.4,3.71,11.5,26.5,40.4,> 100,13.9,28.1,16.4,9.98,15.1
C/C(=N/NC(=S)N1CC2CCC(CC2)C1)c1cnccn1,–,10.9,–,12.7,–,–,1.33,–,–,8.46,–,–,7.02,–,14.3,–,6.08,21,–,7.78
N#C/C(=C\c1ccc(F)cc1)n1nc2cccc(F)c2n1,4.16,> 100,2.1,9.15,2.83,4.64,> 100,2.75,4.68,> 100,2.72,2.37,8.09,–,–,3.3,> 100,> 100,> 100,27

# — PubChem BioAssay (NCI)
